Laboratory results from publication PMC9849758, “Chemically diverse activity-based probes with unexpected inhibitory mechanisms targeting trypsin-like serine proteases” (Frontiers in Chemistry, 2023).
Structures can show the parent of a compound that is named as a salt.

How the values were obtained:
Format in all cases: biochemical
uPA = target: T1, uPA (Homo sapiens, UniProt P00749); assay: Jump dilution, determination of inhibition type; settings: inhibitor at 10 times IC50, 15 min, diluted 10-fold or 100-fold; Rev./Irrev.
T1 construct: purchased HYPHEN BioMed
Protocol: (§1) The dissociation of the enzyme-inhibitor complex was monitored by substrate hydrolysis over time ([Joossens et al., 2006]).
(§2) Because ABPs are designed to be irreversible serine protease inhibitors, the IC50 is exclusively used as a first discriminatory evaluation. When an inhibitor is irreversible, its IC50 value not only depends on the substrate and enzyme concentration but also on the time of incubation with the enzyme before the reaction is started by adding the substrate. […] The progress curve in the presence of an irreversible inhibitor will show final velocities equal to zero (Figure 6C). In contrast, for a reversible inhibitor, progress curves have a non-zero final steady-state velocity (Figure 6A) ([McWhirter, 2021]). To corroborate the inhibitory mechanism of the compounds, jump-dilution assays were performed. These use an inhibitor concentration of 10-fold the IC50 for the incubation, and a posteriori, the reaction mixture is diluted 10-fold or 100-fold before adding the substrate. In the case of an irreversible inhibitor, enzymatic activity is not regained (Figure 6D), whereas, in the case of a reversible compound, a slow release of the inhibitor and a gradual increase of the enzymatic activity rate is observed (Figure 6B) ([Copeland, 2013]; [McWhirter, 2021]). The jump-dilution assays confirmed the behavior described by the progress curves.
(§3) 2.2.2 Jump dilution results
(§4) Supplementary Table 2. Jump dilution of selected alkyne and desthiobiotin probes against a panel of trypsin-like serine proteases. […]
(§5) # R R DtBa 3 tryptase Thrombin uPA CatG
(§6) 32b H Alk Irrev. Irrev. Rev. Irrev. Rev.
(§7) 45b DtB Irrev. Irrev. Rev. N.D. N.D.
(§8) 33b Alk Irrev. Irrev. Rev. Irrev. Rev.
(§9) 46b Cl DtB Irrev. Irrev. Rev. N.D. N.D.
(§10) 34b H Alk Rev. Rev. Rev. Irrev. Rev.
(§11) 50b DtB Rev. Rev. Rev. Irrev. Rev.
(§12) 35b Alk Rev. Rev. Rev. Irrev. Rev.
(§13) 52b NHCOMe DtB Rev. Rev. Rev. Irrev. Rev.
(§14) 36b Alk Rev. Rev. Rev. Irrev. Rev.
(§15) 54b Cl DtB Rev. Rev. Rev. Irrev. Rev.
(§16) 37b Alk Irrev. Irrev. N.D. Irrev. Irrev.
(§17) 55b H DtB Irrev. Irrev. N.D. Irrev. Irrev.
(§18) 38b Alk Irrev. Irrev. N.D. Irrev. Irrev.
(§19) 56b NHCOMe DtB Irrev. Irrev. N.D. Irrev. Irrev.
(§20) 39b Alk Irrev. Irrev. N.D. Irrev. Rev.
(§21) 57b Cl DtB Irrev. Irrev. N.D. Irrev. Rev.
(§22) 41b H Alk Irrev. Irrev. Irrev. N.D. N.D.
(§23) 31b Pro-Lys H Alk Irrev. Irrev. Irrev. Irrev. N.D. a Alk: ABP precursor bearing an alkyne; DtB: desthiobiotin probe b Panel of serine proteases abbreviations: urokinase plasminogen activator (uPA), cathepsin G (catG) N.D.: IC50 is greater than 10µM, and jump dilution was not performed
(§24) 2.2.3 Progress curves and Jump dilution experiments
(§25) Kinetic assays were performed in the following manner. The inhibitor was mixed with the substrate, and the buffer solution with the enzyme was added at the time zero. The progress curves show the release of para-nitroaniline (pNA) or 7-amino-4-methyl coumarin (AMC) as a function of time.
(§26) To monitor the dissociation of the inhibitor-enzyme, aliquots of the enzyme were incubated at 37 °C without and with the inhibitor at a concentration 10 times higher than its IC 50. The enzyme […]
(§27) min, the aliquots were diluted 10-fold or 100-fold into the substrate concentration and assay buffer used for the IC50 determination. The dissociation of the enzyme-inhibitor complex was monitored by substrate hydrolysis over time. Blue lines represent the control where no inhibitor was present. Pink lines represent the assay with inhibitor.

Trypsin-3 [1] = target: T2, Trypsin-3 (Homo sapiens, UniProt P35030); assay: Jump dilution, determination of inhibition type; set-up: purchased R&D; settings: inhibitor at 10 times IC50, 15 min, diluted 10-fold or 100-fold; Rev./Irrev.
T2 sequence (P35030 1-304): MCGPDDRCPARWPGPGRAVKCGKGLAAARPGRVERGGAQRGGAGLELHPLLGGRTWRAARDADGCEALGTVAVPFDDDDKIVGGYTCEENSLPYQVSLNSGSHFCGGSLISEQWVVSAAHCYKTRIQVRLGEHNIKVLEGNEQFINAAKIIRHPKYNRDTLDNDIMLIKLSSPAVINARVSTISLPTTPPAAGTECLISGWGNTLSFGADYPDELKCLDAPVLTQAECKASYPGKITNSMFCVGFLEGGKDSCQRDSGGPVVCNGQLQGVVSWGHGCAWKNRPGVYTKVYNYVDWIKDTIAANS
Protocol: as §1, §2, §3, §4, §5, §6, §7, §8, §9, §10, §11, §12, §13, §14, §15, §16, §17, §18, §19, §20, §21, §22, §23, §24, §25, §26, §27

β-tryptase = β-tryptase (Homo sapiens, UniProt P20231); assay: Jump dilution, determination of inhibition type; set-up: purchased EnzoLife Sciences; settings: inhibitor at 10 times IC50, 15 min, diluted 10-fold or 100-fold; Rev./Irrev.
Protocol: as §1, §2, §3, §4, §5, §6, §7, §8, §9, §10, §11, §12, §13, §14, §15, §16, §17, §18, §19, §20, §21, §22, §23, §24, §25, §26, §27

Trypsin-3 [2] = target: T2, Trypsin-3; assay: Kinetic progress curves (kapp, K1, KI*, mechanism); set-up: purchased R&D; settings: for Ki / Trypsin-3 kapp: mean ± SD; for Trypsin-3 kapp: apparent second-order rate constant from progress curves; for Trypsin-3 mechanism of inhibition: defined by the progress curves: slow-binding (Rev.) or irreversible (Irrev.)
Protocol: Because the compounds described in this paper were previously described as irreversible inhibitors, the IC50 value is inversely correlated with the second-order rate constant of inactivation. For a simple pseudo-first-order inactivation process, the activity after incubation with inhibitor (vi) varies with the inhibitor concentration (i), as described in the following equation: vi=v0·e^−kit where v0 is the activity in the absence of an inhibitor, k is the second-order rate constant of inactivation, and t is the time. The inactivation rate constant was determined from the time course of inhibition.
Kinetic assays were performed in the following manner. The inhibitor was mixed with the substrate, and the buffer solution with the enzyme was added at the time zero. The progress curves show the release of pNA or AMC as a function of time. Initially, no inhibitor is bound to the enzyme, and the tangent to the progress curve (dA/dt) is proportional to the free enzyme concentration. The free enzyme concentration decreases over time due to inhibitor binding kinetics, as described above. Progress curves were recorded in pseudo-first-order conditions ([I]0>>[E]0) and with less than 10% conversion of the substrate during the entire time course. In these conditions, dA/dt decreases exponentially with time. The progress curves were fitted with the integrated rate equation with GraFit7 to yield a value for kobs, a pseudo-first-order rate constant. At=Ao+vs∙t+vi−vs∙1−e^−kobs∙t/kobs where At is the absorbance at time t, A0 is the absorbance at time zero, vi is the initial rate and vs is the velocity at the steady-state.
The apparent second-order rate constant (kapp) was calculated from the slope of the linear part of the plot of kobs vs. the inhibitor concentration ([I]0). In the case of competition between the inhibitor and the substrate, kapp is smaller than the “real” second-order rate constant k discussed above because a certain fraction of the enzyme is present as an enzyme-substrate complex. kapp depends on the substrate concentration used in the experiment, as described by [Lambeir et al. (1996)].
The apparent equilibrium constants were obtained from the following equations, vi/vo=1/1+I/K1; vS/vo=1/1+I/KI* where vi is the initial rate, vs is the steady-state velocity and vo is the uninhibited initial rate.

[3] = Trypsin-3 K1, apparent equilibrium constant of the first step of slow-binding
[4] = Trypsin-3 KI*, apparent equilibrium constant of the overall process

β-tryptase, sequence (P20231 31-275): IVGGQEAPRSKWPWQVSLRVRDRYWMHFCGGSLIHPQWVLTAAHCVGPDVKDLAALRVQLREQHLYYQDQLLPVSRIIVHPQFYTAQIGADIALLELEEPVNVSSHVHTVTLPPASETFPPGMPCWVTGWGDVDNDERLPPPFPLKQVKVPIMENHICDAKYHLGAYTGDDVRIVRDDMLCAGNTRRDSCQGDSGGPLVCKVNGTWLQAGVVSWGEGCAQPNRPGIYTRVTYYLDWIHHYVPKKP

| SMILES | uPA jump dilution result (uPA) | Trypsin-3 jump dilution result (Trypsin-3 [1]) | β-tryptase jump dilution result (β-tryptase) | Ki (Trypsin-3 [2]; [3]) [nM] | Ki (Trypsin-3 [2]; [4]) [nM] | Trypsin-3 kapp (Trypsin-3 [2]) | selectivity for trypsin-3 over β-tryptase (Trypsin-3 [2]; based on the kapp values) [fold] | selectivity for trypsin-3 versus thrombin (Trypsin-3 [2]; based on the kapp values) | selectivity for trypsin-3 versus uPA (Trypsin-3 [2]; based on the kapp values) [fold] | Trypsin-3 mechanism of inhibition (Trypsin-3 [2]) | selectivity for trypsin-3 over the other tested proteases (Trypsin-3 [2]; based on the kapp values) |
| --- | --- | --- | --- | --- | --- | --- | --- | --- | --- | --- | --- |
| C#CCCCOC(=O)NC(Cc1ccc(NC(=N)N)cc1)P(=O)(Oc1ccccc1)Oc1ccccc1 (stereo not drawn) [34b] | Irrev. | Rev. | Rev. | 29 ± 5 | 3 ± 0.3 | 40 × 10^3 ± 2642 M^−1 s^−1 | 55 | over 2000 fold | 5 | reversible slow-binding and Rev. |  |
| C[C@@H]1NC(=O)N[C@@H]1CCCCCC(=O)NCCOCCOCCOCCn1cc(CCCOC(=O)NC(Cc2ccc(NC(=N)N)cc2)P(=O)(Oc2ccccc2)Oc2ccccc2)nn1 (stereo partly drawn) [50b, 3-(1-(18-((4R,5S)-5-methyl-2-oxoimidazolidin-4-yl)-13-oxo-3,6,9-trioxa-12-azaoctadecyl)-1H-1,2,3-triazol-4-yl)propyl (1-(diphenoxyphosphoryl)-2-(4-guanidinophenyl)ethyl)carbamate trifluoroacetate salt] | Irrev. | Rev. | Rev. | 98 ± 22 | 3 ± 0.2 | 49 × 10^3 ± 2979 M^−1 s^−1 |  |  |  | Rev. |  |
| C#CCCCOC(=O)NC(Cc1ccc(NC(=N)N)cc1)P(=O)(Oc1ccc(Cl)cc1)Oc1ccc(Cl)cc1 (stereo not drawn) [36b] | Irrev. | Rev. | Rev. | 8 ± 0.8 | 1 ± 0.1 | 29 × 10^3 ± 6499 M^−1 s^−1 |  |  |  | Rev. |  |
| C#CCCCOC(=O)NC(CCCNC(=N)N)P(=O)(Oc1ccccc1)Oc1ccccc1 (stereo not drawn) [32b] | Irrev. | Irrev. | Irrev. |  |  | 18 × 10^2 ± 66 M^−1 s^−1 |  |  |  | Irrev. | at least 30 fold |
